Assays:
[1] = Cmax in rat plasma at 5 mg/kg, po; format: ADME, organism-based; design: dose 5 mg/kg, route po
[2] = AUC (0 to infinity) in rat plasma at 5 mg/kg, po; format: ADME, organism-based; design: time infinity, dose 5 mg/kg, route po
[3] = molecular target: T1, Retinoic acid receptor RXR-alpha (Homo sapiens) (UniProt P19793); assay: Agonist activity at RXRalpha (unknown origin) using fluorescein-D22 as substrate by fluorescence polarization assay relative to control
T1 sequence (whole entry): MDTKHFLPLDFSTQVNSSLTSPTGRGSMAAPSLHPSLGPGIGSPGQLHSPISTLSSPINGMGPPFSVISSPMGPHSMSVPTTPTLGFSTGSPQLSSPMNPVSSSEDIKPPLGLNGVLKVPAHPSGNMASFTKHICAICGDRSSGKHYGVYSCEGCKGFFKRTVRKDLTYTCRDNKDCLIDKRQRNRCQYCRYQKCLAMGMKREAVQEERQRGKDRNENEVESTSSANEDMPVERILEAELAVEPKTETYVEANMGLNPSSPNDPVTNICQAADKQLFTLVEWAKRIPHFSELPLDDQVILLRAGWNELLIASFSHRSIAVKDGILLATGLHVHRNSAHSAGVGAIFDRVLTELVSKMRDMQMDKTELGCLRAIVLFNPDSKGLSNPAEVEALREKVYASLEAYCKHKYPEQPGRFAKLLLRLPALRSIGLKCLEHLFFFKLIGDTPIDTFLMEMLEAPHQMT

[4] = Inhibition of Plasmodium vivax SHMT
[5] = molecular target: T2, Retinoic acid receptor RXR-alpha (Homo sapiens, UniProt P19793); assay: Agonist activity at RXRalpha (unknown origin) using fluorescein-D22 as substrate by fluorescence polarization assay
T2 sequence (P19793 whole entry): T1 sequence (whole entry)

[6] = molecular target: Phosphoglycerate mutase 1 (Homo sapiens, UniProt P18669); assay: Inhibition of PGAM1 in human MDA-MB-231 cells; format: cell-based
MDA-MB-231 = assay: Cytotoxicity against human MDA-MB-231 cells assessed as cell growth inhibition; format: functional, cell-based
[7] = Octanol-water partition coefficient, log P of the compound by LC-MS/MS analysis; format: physicochemical
[8] = Metabolic stability in human liver microsomes assessed as compound remaining; format: ADME, Microsome
[9] = AUC (0 to 4 hrs) in rat at 5 mg/kg, po; format: ADME, organism-based; design: time < 4 hr, dose 5 mg/kg, route po; settings: in vivo
[10] = Volume of distribution in rat at 2 mg/kg, iv; format: ADME, organism-based; settings: in vivo
Influenza A virus = assay: Antiviral activity against wild-type Influenza A virus A/M2 assessed as viral growth inhibition; format: functional, organism-based
[11] = Selectivity ratio of Ki for rat liver Sigma2 receptor to Ki for Guinea pig brain Sigma1 receptor
[12] = molecular target: NF-kappa-B essential modulator (Homo sapiens, UniProt Q9Y6K9); assay: Binding affinity to full-length human NEMO (1 to 419 residues) assessed as dissociation constant
[13] = Cytotoxicity against human HUVEC cells assessed as reduction in cell viability; format: toxicity, cell-based

Chain of NF-kappa-B essential modulator (Q9Y6K9 whole entry, the tested form may be a part): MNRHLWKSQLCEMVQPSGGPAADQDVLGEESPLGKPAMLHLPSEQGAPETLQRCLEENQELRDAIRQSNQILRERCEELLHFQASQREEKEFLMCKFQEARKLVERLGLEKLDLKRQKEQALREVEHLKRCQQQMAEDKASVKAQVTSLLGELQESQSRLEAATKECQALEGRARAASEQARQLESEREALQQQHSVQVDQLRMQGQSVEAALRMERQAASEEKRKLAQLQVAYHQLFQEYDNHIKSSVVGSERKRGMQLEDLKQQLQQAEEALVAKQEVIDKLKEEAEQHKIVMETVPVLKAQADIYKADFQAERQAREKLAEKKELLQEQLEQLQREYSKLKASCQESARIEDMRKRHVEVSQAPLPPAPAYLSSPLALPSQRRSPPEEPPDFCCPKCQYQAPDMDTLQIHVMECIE
Chain of Phosphoglycerate mutase 1 (P18669 whole entry): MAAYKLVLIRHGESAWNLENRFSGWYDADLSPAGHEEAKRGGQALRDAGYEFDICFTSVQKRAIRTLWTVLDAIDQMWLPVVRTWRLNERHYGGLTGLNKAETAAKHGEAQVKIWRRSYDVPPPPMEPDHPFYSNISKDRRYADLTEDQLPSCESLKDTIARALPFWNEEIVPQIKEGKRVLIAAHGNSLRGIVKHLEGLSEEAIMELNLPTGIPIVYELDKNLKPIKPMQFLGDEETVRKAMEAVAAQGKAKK

COc1ccc2nc3c(nc2c1)O[C@@H]1C[C@H]2C(=O)N[C@]4(C(=O)NS(=O)(=O)C5(C)CC5)C[C@H]4/C=C\CCCCC[C@H](NC(=O)O[C@@H]4CCC[C@H]4CCCCC3)C(=O)N2C1.[K+]
Cmax [1]: 70 nM
AUC(0-inf) [2]: 2.4 µM·h

CC1(C)CCC(C)(C)c2cc3c(cc21)CCC1(CCc2cc(C(=O)O)ccc2O1)O3 (stereo in doubt; form 1) [listing 1 of 2 here]
Efficacy ([3]; filed as agonist): 54%

Cc1[nH]nc2c1C1(C(C#N)=C(N)O2)c2cc(N3CCC(CC(=O)O)CC3)cc(F)c2CC1(C)C (racemic)
IC50 [4]: 61 nM

CC1(C)CCC(C)(C)c2cc3c(cc21)CCC1(CCc2cc(C(=O)O)ccc2O1)O3 (stereo in doubt; form 2) [listing 1 of 2 here]
EC50 [5]: 1200 nM

C#CCCCC(=O)OC(C)(C)C1CCC2(CO2)C(OC(=O)N[C@@H](Cc2c[nH]c3ccccc23)C(=O)OCc2ccccc2)C1 (some centres undefined)
IC50 [6]: 33000 nM
IC50 (MDA-MB-231): 19000 nM

O=C1Nc2ccc(Cl)cc2C12Cc1ccccc1B(O)O2 (centres undefined)
logP [7]: < 4
Stability [8]: > 80%

CC1(C)CCC(C)(C)c2cc3c(cc21)CCC1(CCc2cc(C(=O)O)ccc2O1)O3 (racemic) [listing 1 of 2 here]
EC50 [5]: 730 nM

CN1C(=O)C2(Cc3ccccc3B(O)O2)c2ccccc21 (centres undefined)
logP [7]: < 4
Stability [8]: > 80%

CC1(C)CCC(C)(C)c2cc3c(cc21)CCC1(CCc2cc(C(=O)O)ccc2O1)O3 (stereo in doubt; form 1) [listing 2 of 2 here]
EC50 [5]: 170 nM

COc1ccc2nc3c(nc2c1)O[C@@H]1C[C@H]2C(=O)N[C@]4(C(=O)NS(=O)(=O)C5(C)CC5)C[C@H]4/C=C\CCCCC[C@H](NC(=O)O[C@@H]4CCC[C@H]4CCCCC3)C(=O)N2C1
AUC(0-t) at 4 h [9]: 0.77 µM·h
Vd [10]: 4 L/kg

O=C1Nc2cc(Cl)ccc2C12Cc1ccccc1B(O)O2 (centres undefined)
logP [7]: < 4
Stability [8]: > 80%

NC1CC[Si]2(CCCC2)CC1
IC50 (Influenza A virus): 7800 nM

c1ccc(CN2CC[Si]3(CCCc4ccccc43)CC2)cc1
Ratio Ki [11]: 221

Cc1ccc([C@@H]2[C@H]3C=C(C=O)[C@@H](c4ccc(C)cc4)[C@H]([N+](=O)[O-])[C@@H]3C[C@]23C(=O)N(C)c2ccccc23)cc1
Kd [12]: 190 nM

Cc1[nH]nc2c1[C@@]1(C(C#N)=C(N)O2)c2cc(N3CCC(CC(=O)O)CC3)cc(F)c2CC1(C)C
IC50 [4]: 2510 nM

Cc1ccc([C@@H]2[C@H]3C=C(C=O)[C@@H](c4ccc(C)cc4)[C@H]([N+](=O)[O-])[C@@H]3C[C@@]23C(=O)N(C)c2ccccc23)cc1
Kd [12]: 80 nM

O=C1Nc2ccccc2C12Cc1ccccc1B(O)O2 (centres undefined)
logP [7]: < 4
Stability [8]: > 80%

NC1CCC2(CCCC2)CC1
IC50 (Influenza A virus): 3300 nM

CC1(C)CCC(C)(C)c2cc3c(cc21)CCC1(CCc2cc(C(=O)O)ccc2O1)O3 (racemic) [listing 2 of 2 here]
Efficacy ([3]; filed as agonist): 53%

COc1ccc(Cn2nnc3c2[C@]2(CC[C@H]3OC(=O)NC(C)C)CO2)cc1
EC50 [13]: 94 nM

O=C1Nc2ccc(F)cc2C12Cc1ccccc1B(O)O2 (centres undefined)
logP [7]: < 4
Stability [8]: > 80%

O=C1Nc2cc(C(F)(F)F)ccc2C12Cc1ccccc1B(O)O2 (centres undefined)
logP [7]: < 4
Stability [8]: > 80%

CC1(C)CCC(C)(C)c2cc3c(cc21)CCC1(CCc2cc(C(=O)O)ccc2O1)O3 (stereo in doubt; form 2) [listing 2 of 2 here]
Efficacy [3]: 26%

c1ccc(CN2CCC3(CCCc4ccccc43)CC2)cc1
Ratio Ki [11]: 22

Cc1[nH]nc2c1[C@]1(C(C#N)=C(N)O2)c2cc(N3CCC(CC(=O)O)CC3)cc(F)c2CC1(C)C
IC50 [4]: 43 nM

From ChEMBL document CHEMBL5096153, “Spirocyclic Scaffolds in Medicinal Chemistry” (J Med Chem, 2021)
